target: T1, wildtype HIV-1 protease (Human immunodeficiency virus type 1 group M subtype B, UniProt P04585); assay: Assay for inhibition of microbial expressed HIV protease (Pepcleav); assay type: biochemical; details: wild type HIV-1 protease expressed in E. coli, peptide substrate, pH 5.5; mean of at least two independent experiments; read-out: Pepcleav
T1 construct: the wildtype HIV-1 protease (which was expressed in Escherichia coli); made in house; host or cells: Escherichia coli
Description: Assay for Inhibition of Microbial Expressed HIV Protease (“Pepcleav”)
Studies of the inhibition of the wildtype HIV-1 protease (which was expressed in Escherichia coli) were carried out with a peptide substrate [Val-Ser-Gln-Asn-(βnaphthyl)Ala-Pro-Ile-Val (SEQ ID NO:1)]. The inhibitor is first preincubated with the HIV-1 protease (wild type) enzyme in assay buffer (50 mM sodium acetate, pH 5.5, 100 mM NaCl, and 0.1% BSA) for 30 minutes at room temperature. Substrate is added to 400 micromolar in a total volume of 20 microliters containing 20 picomolar HIV-1 protease (final) and the reaction is incubated for 1 hour at 30° C. The reaction is quenched with the addition of formic acid and indinavir to 0.012% and 150 nM final concentrations, respectively. The product formation is determined after separation of product and substrate on a Zorbax Eclipse XDB-C 18 column connected to an API 4000 mass spectrometer (Applied Biosystems) with multiple reaction monitoring (transitions were 644.5/428.9 and 615.4/422.2 (M1/M3) for product and indinavir respectively). The extent of inhibition of the reaction is determined from the peak area of the products.

Row | SMILES | IC50
1 | COC(=O)N[C@H](C(=O)Nc1ccccc1CC[C@@H]1CN[C@H](COC(=O)N(C)C)CO1)C(c1ccccc1)c1ccccc1 [Example 26, methyl N-[(1S)-1-benzhydryl-2-[[2-[2-[(2R,5S)-5-(dimethylcarbamoyloxymethyl)morpholin-2-yl]ethyl]phenyl]amino]-2-oxo-ethyl]carbamate] | 210 nM
2 | COC(=O)N[C@H](C(=O)Nc1ccccc1CC[C@@H]1CN[C@H](COC(=O)N2CCCC2)CO1)C(c1ccccc1)c1ccccc1 [Example 27, [(3S,6R)-6-[2-[2-[[(2S)-2-(methoxycarbonylamino)-3,3-diphenyl-propanoyl]amino]phenyl]ethyl]morpholin-3-yl]methyl pyrrolidine-1-carboxylate] | 180 nM
3 | COC(=O)N[C@H](C(=O)Nc1ccccc1CC[C@@H]1CN[C@H](COC(=O)NCCN(C)C)CO1)C(c1ccccc1)c1ccccc1 [Example 28, methyl N-[(1S)-1-benzhydryl-2-[[2-[2-[(2R,5S)-5-(2-dimethylaminoethylcarbamoyloxymethyl)morpholin-2-yl]ethyl]phenyl]amino]-2-oxo-ethyl]carbamate] | 250 nM
4 | COC(=O)N[C@H](C(=O)Nc1ccccc1CC[C@@H]1CN[C@H](COC(=O)N[C@H]2COC[C@@H]2F)CO1)C(c1ccccc1)c1ccccc1 [Example 29, N-[2-(2-{(2R,5S)-5-[({[(3S,4R)-4-fluorotetrahydrofuran-3-yl]carbamoyl}oxy)methyl]morpholin-2-yl}ethyl)phenyl]-Nα-(methoxycarbonyl)-β-phenyl-L-phenylalaninamide] | 18 nM
5 | CNC(=O)OC[C@@H]1CO[C@H](CCc2ccccc2NC(=O)[C@@H](NC(=O)OC)C(c2ccccc2)c2ccccc2)CN1 [Example 30] | 32 nM
6 | COC(=O)N[C@H](C(=O)Nc1ccccc1CC[C@@H]1CN[C@H](COC(=O)NC(C2CC2)C(F)(F)F)CO1)C(c1ccccc1)c1ccccc1 (stereo partly drawn) [Example 31, N-(2-{2-[(2R,5S)-5-({[(1-cyclopropyl-2,2,2 trifluoroethyl)carbamoyl]oxy}methyl)morpholin-2-yl]ethyl}phenyl)-Nα-(methoxycarbonyl)-β-phenyl-L-phenylalaninamide] | 29 nM
7 | COC(=O)N[C@H](C(=O)Nc1ncccc1CC[C@@H]1CN[C@H](COC(=O)NCc2ccc(F)cc2)CO1)C(c1ccccc1)c1ccccc1 [Example 32, N-(3-{2-[(2R,5S)-5-({[(4-fluorobenzyl)carbamoyl]oxy}methyl)morpholin-2-yl]ethyl}pyridin-2-yl)-Nα-(methoxycarbonyl)-β-phenyl-L-phenylalaninamide] | 21 nM
8 | COC(=O)N[C@H](C(=O)Nc1cnccc1CC[C@@H]1CN[C@H](COC(=O)NCc2ccc(F)cc2)CO1)C(c1ccccc1)c1ccccc1 [Example 33, N-(4-{2-[(2R,5S)-5-({[(4-fluorobenzyl)carbamoyl]oxy}methyl)morpholin-2-yl]ethyl}pyridin-3-yl)-Nα-(methoxycarbonyl)-β-phenyl-L-phenylalaninamide] | 5.7 nM
9 | COC(=O)N[C@H](C(=O)Nc1cnccc1CC[C@@H]1CN[C@H](COC(=O)NCC(F)(F)F)CO1)C(c1ccccc1)c1ccccc1 [Example 34, Nα-(methoxycarbonyl)-β-phenyl-N-(4-{2-[(2R,5S)-5-({[(2,2,2-trifluoroethyl)carbamoyl]oxy}methyl)morpholin-2-yl]ethyl}pyridin-3-yl)-L-phenylalaninamide] | 14 nM
10 | COC(=O)N[C@H](C(=O)Nc1c(CC[C@@H]2CN[C@H](COC(=O)NCC(F)(F)F)CO2)ccnc1OC)C(c1ccccc1)c1ccccc1 [Example 35, Nα-(methoxycarbonyl)-N-(2-methoxy-4-{2-[(2R,5S)-5-({[(2,2,2-trifluoroethyl)carbamoyl]oxy}methyl)morpholin-2-yl]ethyl}pyridin-3-yl)-β-phenyl-L-phenylalaninamide] | 60 nM
11 | COC(=O)N[C@H](C(=O)Nc1cncnc1CC[C@@H]1CN[C@H](COC(=O)NCc2ccc(F)cc2)CO1)C(c1ccccc1)c1ccccc1 [Example 36, N-(4-{2-[(2R,5S)-5-({[(4-fluorobenzyl)carbamoyl]oxy}methyl)morpholin-2-yl]ethyl}pyrimidin-5-yl)-Nα-(methoxycarbonyl)-β-phenyl-L-phenylalaninamide] | 24 nM
12 | COC(=O)N[C@H](C(=O)Nc1cncnc1CC[C@@H]1CN[C@H](COC(=O)NCC(F)(F)F)CO1)C(c1ccccc1)c1ccccc1 [Example 37, Nα-(methoxycarbonyl)-β-phenyl-N-(4-{2-[(2R,5S)-5-({[(2,2,2-trifluoroethyl)carbamoyl]oxy}methyl)morpholin-2-yl]ethyl}pyrimidin-5-yl)-L-phenylalaninamide] | 180 nM
13 | COC(=O)N[C@H](C(=O)Nc1c(CC[C@@H]2CN[C@H](COC(=O)NCc3ccc(F)cc3)CO2)cc[nH]c1=O)C(c1ccccc1)c1ccccc1 [Example 38, N-(4-{2-[(2R,5S)-5-({[(4-fluorobenzyl)carbamoyl]oxy}methyl)morpholin-2-yl]ethyl}-2-oxo-1,2-dihydropyridin-3-yl)-Nα-(methoxycarbonyl)-β-phenyl-L-phenylalaninamide] | 0.6 nM
14 | COC(=O)N[C@H](C(=O)Nc1c(CC[C@@H]2CN[C@H](COC(=O)NCC(F)(F)F)CO2)cc[nH]c1=O)C(c1ccccc1)c1ccccc1 [Example 39, Nα-(methoxycarbonyl)-N-(2-oxo-4-{2-[(2R,5S)-5-({[(2,2,2-trifluoroethyl)carbamoyl]oxy}methyl)morpholin-2-yl]ethyl}-1,2-dihydropyridin-3-yl)-β-phenyl-L-phenylalaninamide] | 2.3 nM
15 | COC(=O)N[C@H](C(=O)Nc1ccccc1CC[C@@H]1CN[C@H](CNC(=O)Nc2ccccc2)CO1)C(c1ccccc1)c1ccccc1 [Example 40, N-α-(methoxycarbonyl)-β-phenyl-N-(2-{2-[(2R,5R)-5-{[(phenylcarbamoyl)amino]methyl}morpholin-2-yl]ethyl}phenyl)-L-phenylalaninamide] | 52 nM
16 | COC(=O)N[C@H](C(=O)Nc1ccccc1CC[C@@H]1CN[C@H](CNC(=O)Nc2cccnn2)CO1)C(c1ccccc1)c1ccccc1 [Example 41, methyl N-[(1S)-1-benzhydryl-2-oxo-2-[[2-[2-[(2R,5R)-5-[(pyridazin-3-ylcarbamoyl-amino)methyl]morpholin-2-yl]ethyl]phenyl]amino]ethyl] carbamate] | 2.9 nM
17 | COC(=O)N[C@H](C(=O)Nc1ccccc1CC[C@@H]1CN[C@H](CNC(=O)Nc2ccccn2)CO1)C(c1ccccc1)c1ccccc1 [Example 42, methyl N-[(1S)-1-benzhydryl-2-oxo-2-[[2-[2-[(2R,5R)-5-[(2-pyridylcarbamoylamino)methyl]morpholin-2-yl]ethyl]phenyl]amino]ethyl]carbamate] | 17 nM
18 | COC(=O)N[C@H](C(=O)Nc1ccccc1CC[C@@H]1CN[C@H](CNC(=O)Nc2cc[nH]n2)CO1)C(c1ccccc1)c1ccccc1 [Example 43, methyl N-[(1S)-1-benzhydryl-2-oxo-2-[[2-[2-[(2R,5R)-5-[(1H-pyrazol-3-ylcarbamoylamino)methyl]morpholin-2-yl]ethyl]phenyl]amino]ethyl]carbamate] | 96 nM
19 | COC(=O)N[C@H](C(=O)Nc1ccccc1CC[C@@H]1CN[C@H](CNS(=O)(=O)c2ccccc2)CO1)C(c1ccccc1)c1ccccc1 [Example 44, Nα-(methoxycarbonyl)-β-phenyl-N-(2-{2-[(2R,5R)-5-{[(phenylsulfonyl)amino]methyl}morpholin-2-yl]ethyl}phenyl)-L-phenylalaninamide] | 26 nM
20 | COC(=O)N[C@H](C(=O)Nc1ccccc1CC[C@@H]1CN[C@H](CNS(=O)(=O)c2ccc3cnnn3c2)CO1)C(c1ccccc1)c1ccccc1 [Example 45, methyl N-[(1S)-1-benzhydryl-2-oxo-2-[[2-[2-[(2R,5R)-5-[(triazolo[1,5-a]pyridin-6-ylsulfonylamino)methyl]morpholin-2-yl]ethyl]phenyl]amino]ethyl]carbamate] | 21 nM
21 | COC(=O)N[C@H](C(=O)Nc1ccccc1CC[C@@H]1CN[C@H](CNS(=O)(=O)c2cccc(C(F)(F)F)n2)CO1)C(c1ccccc1)c1ccccc1 [Example 46, methyl N-[(1S)-1-benzhydryl-2-oxo-2-[[2-[2-[(2R,5R)-5-[[[6-(trifluoromethyl)-2-pyridyl]sulfonylamino]methyl]morpholin-2-yl]ethyl]phenyl]amino]ethyl]carbamate] | 50 nM
22 | COC(=O)N[C@H](C(=O)Nc1ccccc1CC[C@@H]1CN[C@H](CNS(=O)(=O)C2CC2)CO1)C(c1ccccc1)c1ccccc1 [Example 47, methyl N-[(1S)-1-benzhydryl-2-[[2-[2-[(2R,5R)-5-[(cyclopropyl-sulfonylamino)methyl]morpholin-2-yl]ethyl]phenyl]amino]-2-oxo-ethyl]carbamate] | 84 nM
23 | COC(=O)N[C@H](C(=O)Nc1ccccc1CC[C@@H]1CN[C@H](CNS(=O)(=O)c2ccccn2)CO1)C(c1ccccc1)c1ccccc1 [Example 48, methyl N-[(1S)-1-benzhydryl-2-oxo-2-[[2-[2-[(2R,5R)-5-[(2-pyridylsulfonylamino)methyl]morpholin-2-yl]ethyl]phenyl]amino]ethyl]carbamate] | 91 nM
